Reference: ChEMBL document CHEMBL5543174, “A Nonbactericidal Anionic Antimicrobial Peptide Provides Prophylactic and Therapeutic Efficacies against Bacterial Infections in Mice by Immunomodulatory-Antithrombotic Duality” (J Med Chem, 2024)
The source made the active and inactive calls.

Experiments:
[1] = system: Escherichia coli; experiment: Antimicrobial activity against Escherichia coli ATCC 25922 assessed as inhibition of microbial growth at <= 200 ug/ml incubated for 18 hrs by micro-broth dilution method; assay type: functional, organism-based; conditions: dose <= 200.0 µg/ml
[2] = system: Pseudomonas aeruginosa; experiment: Antimicrobial activity against Pseudomonas aeruginosa ATCC 27853 assessed as inhibition of microbial growth at <= 200 ug/ml incubated for 18 hrs by micro-broth dilution method; assay type: functional, organism-based; conditions: dose <= 200.0 µg/ml
[3] = system: Acinetobacter junii; experiment: Antimicrobial activity against Acinetobacter junii ATCC 17908 assessed as inhibition of microbial growth at <= 200 ug/ml incubated for 18 hrs by micro-broth dilution method; assay type: functional, organism-based; conditions: dose <= 200.0 µg/ml
[4] = system: Klebsiella pneumoniae; experiment: Antimicrobial activity against Klebsiella pneumoniae ATCC 27736 assessed as inhibition of microbial growth at <= 200 ug/ml incubated for 18 hrs by micro-broth dilution method; assay type: functional, organism-based; conditions: dose <= 200.0 µg/ml
[5] = system: Salmonella paratyphi; experiment: Antimicrobial activity against Salmonella paratyphi ATCC 9150 assessed as inhibition of microbial growth at <= 200 ug/ml incubated for 18 hrs by micro-broth dilution method; assay type: functional, organism-based; conditions: Salmonella enterica subsp. enterica serovar Paratyphi A, dose <= 200.0 µg/ml
[6] = system: Staphylococcus haemolyticus; experiment: Antimicrobial activity against Staphylococcus haemolyticus ATCC 29970 assessed as inhibition of microbial growth at <= 200 ug/ml incubated for 18 hrs by micro-broth dilution method; assay type: functional, organism-based; conditions: dose <= 200.0 µg/ml
[7] = system: Staphylococcus aureus; experiment: Antimicrobial activity against Methicillin-resistant Staphylococcus aureus assessed as reduction in microbial colony forming unit at 200 ug/ml incubated for 1 to 4 hrs by time-kill kinetics based analysis; assay type: functional, organism-based; conditions: dose 200.0 µg/ml, time 1-4 hrs
[8] = system: Staphylococcus aureus; experiment: Antibacterial activity against Staphylococcus aureus ATCC 25923 infected in C57BL/6 mouse assessed as reduction in bacterial load at 10 mg/kg,ip pre-administrated 5 hrs before bacterial infection; assay type: functional, organism-based
[9] = system: Staphylococcus aureus; experiment: Antibacterial activity against Staphylococcus aureus ATCC 25923 infected in C57BL/6 mouse assessed as reduction in IL-6 level in peritoneal fluid at 10 mg/kg,ip pre-administrated 5 hrs before bacterial infection measured after 24 hrs by ELISA; assay type: functional, organism-based; conditions: time 29.0 hrs
[10] = system: Staphylococcus aureus; experiment: Antibacterial activity against Methicillin-resistant Staphylococcus aureus infected in C57BL/6 mouse assessed as reduction in TNF-alpha level in peritoneal fluid at 10 mg/kg,ip administrated 5 hrs after bacterial infection measured after 24 hrs by ELISA; assay type: functional, organism-based; conditions: time 19.0 hrs
[11] = system: Staphylococcus aureus; experiment: Antibacterial activity against Staphylococcus aureus ATCC 25923 infected in C57BL/6 mouse assessed as reduction in TNF-alpha level in serum at 10 mg/kg,ip administrated 5 hrs after bacterial infection measured after 24 hrs by ELISA; assay type: functional, organism-based; conditions: time 19.0 hrs
[12] = system: Escherichia coli; experiment: Antibacterial activity against Carbapenem-resistant Escherichia coli infected in C57BL/6 mouse assessed as reduction in inflammatory injury in lung at 10 mg/kg,ip pre-administrated 5 hrs before bacterial infection measured after 24 hrs by hematoxylin and eosin staining based analysis; assay type: functional, organism-based; conditions: time 29.0 hrs
[13] = system: Escherichia coli; experiment: Antibacterial activity against Escherichia coli ATCC 25922 infected in C57BL/6 mouse assessed as increase in survival rate at 10 mg/kg,ip pre-administrated 5 hrs before bacterial infection measured after 7 days; assay type: functional, organism-based; conditions: time 7.0 day
[14] = system: Staphylococcus aureus; experiment: Antibacterial activity against Methicillin-resistant Staphylococcus aureus infected in C57BL/6 mouse assessed as increase in survival rate at 10 mg/kg,ip pre-administrated 5 hrs before bacterial infection measured after 7 days; assay type: functional, organism-based; conditions: time 7.0 day
[15] = system: Mus musculus; experiment: Immunomodulatory activity in cyclophosphamide immunosuppressed C57BL/6 mouse with neutrophil depletion model assessed as increase in number of neutrophil in peritoneal lavage at 10 mg/kg,ip administration measured after 5 hrs by flow cytometry; assay type: functional, organism-based
[16] = system: Mus musculus; experiment: Immunomodulatory activity in cyclophosphamide immunosuppressed C57BL/6 mouse with neutrophil depletion model assessed as increase in number of neutrophil in peritoneal lavage at 10 mg/kg,ip administration measured after 12 hrs by flow cytometry; assay type: functional, organism-based
[17] = system: Mus musculus; experiment: Immunomodulatory activity in clodronate liposome immunosuppressed C57BL/6 mouse with monocyte depletion model assessed as increase in number of monocyte in peritoneal lavage at 10 mg/kg,ip administration measured after 12 hrs by flow cytometry; assay type: functional, organism-based
[18] = system: Mus musculus; experiment: Immunomodulatory activity in cyclophosphamide immunosuppressed C57BL/6 mouse with neutrophil depletion model assessed as increase in number of neutrophil in peritoneal lavage at 10 mg/kg,ip administration measured after 24 hrs by flow cytometry; assay type: functional, organism-based
[19] = system: Peritoneal macrophage; experiment: Induction of chemotaxis in mouse Peritoneal macrophage assessed as increase in macrophage migration incubated for 8 hrs by crystal violet staining based indirect transwell assay; assay type: functional, cell-based
[20] = system: Peritoneal macrophage; experiment: Induction of chemotaxis in mouse Peritoneal macrophage assessed as upregulation of MCP-1 gene expression incubated for 6 hrs by qPCR analysis; assay type: functional, cell-based
[21] = system: Peritoneal macrophage; experiment: Immunomodulatory activity in mouse Peritoneal macrophage assessed as decrease in LPS-induced IL-1beta production at 25 to 100 ug/ml incubated for 6 hrs by ELISA; assay type: functional, cell-based; conditions: dose 25-100 µg/ml
[22] = system: Peritoneal macrophage; experiment: Induction of nitric oxide production in mouse Peritoneal macrophage incubated for 6 hrs by Griess reagent based ELISA; assay type: functional, cell-based
[23] = system: Neutrophil; experiment: Induction of chemotaxis in mouse bone marrow derived neutrophil assessed as increase in neutrophil migration at 25 to 100 ug/ml incubated for 8 hrs by crystal violet staining based direct transwell assay; assay type: functional, cell-based; conditions: dose 25-100 µg/ml
[24] = system: Neutrophil; experiment: Induction of degranulation in mouse bone marrow derived neutrophil assessed as increase in lactoferrin release at 25 to 100 ug/ml incubated for 6 hrs by ELISA; assay type: functional, cell-based; conditions: dose 25-100 µg/ml
[25] = system: Peritoneal macrophage cell; experiment: Induction of chemotaxis in mouse Peritoneal macrophage assessed as increase in macrophage migration at 100 ug/ml preincubated with MTS510 for 30 mins followed by compound addition measured after 8 hrs by crystal violet staining based indirect transwell assay; assay type: functional, cell-based; conditions: dose 100.0 µg/ml
[26] = system: Peritoneal macrophage cell; experiment: Induction of chemotaxis in mouse Peritoneal macrophage assessed as upregulation of CXCL2 production at 100 ug/ml preincubated with WRW4 followed by compound addition by ELISA; assay type: functional, cell-based; conditions: dose 100.0 µg/ml
[27] = system: Peritoneal macrophage cell; experiment: Induction of chemotaxis in mouse Peritoneal macrophage assessed as upregulation of MCP-1 production at 100 ug/ml preincubated with WRW4 followed by compound addition by ELISA; assay type: functional, cell-based; conditions: dose 100.0 µg/ml
[28] = system: Peritoneal macrophage; experiment: Immunoregulatory activity in mouse Peritoneal macrophage assessed as upregulation of p38 phosphorylation incubated for 1 hr by Western blotting analysis; assay type: functional, cell-based
[29] = system: Mus musculus; experiment: Inhibition of fibrin formation in mouse infected with Methicillin-resistant Staphylococcus aureus assessed as reduction in fibrin deposition in lung at 10 mg/kg,ip administrated 5 hrs after bacterial infection measured after 24 hrs by immunohistochemical analysis; assay type: functional, organism-based; conditions: time 19.0 hrs
[30] = system: Mus musculus; experiment: Antithrombotic activity in C57BL/6 mouse tail transection model assessed as increase in tail bleeding time at 30 mg/kg,SC administration; assay type: functional, organism-based
[31] = system: Mus musculus; experiment: Anticoagulation activity in mouse infected with Carbapenem-resistant Escherichia coli assessed as increase in plasma AT-III expression at 10 mg/kg,ip pre-administrated 5 hrs before bacterial infection measured after 24 hrs by ELISA; assay type: functional, organism-based; conditions: time 29.0 hrs
[32] = system: Escherichia coli; experiment: Antibacterial activity against Carbapenem-resistant Escherichia coli infected in C57BL/6 mouse with clodronate liposome-induced monocyte depletion model assessed as decrease in bacterial burden in peritoneal cavity at 10 mg/kg,ip administrated 5 hrs after bacterial infection measured after 24 hrs; assay type: functional, organism-based; conditions: time 19.0 hrs

CC[C@H](C)[C@H](NC(=O)[C@@H]1CSSC[C@H](NC(=O)[C@H](CCC(=O)O)NC(=O)[C@@H](NC(=O)[C@H](CCCCN)NC(=O)[C@H](Cc2c[nH]cn2)NC(=O)[C@@H](NC(=O)[C@H](CCCCN)NC(=O)[C@H](CCC(=O)O)NC(=O)[C@H](C)NC(=O)[C@H](CCC(=O)O)NC(=O)[C@H](CCC(=O)O)NC(=O)[C@H](CCC(=O)O)NC(=O)[C@H](C)N)[C@@H](C)O)[C@@H](C)O)C(=O)N[C@@H](CC(C)C)C(=O)N[C@@H](CCC(=O)O)C(=O)N1)C(=O)N[C@@H](Cc1ccccc1)C(=O)N[C@H](C(=O)N[C@@H](CC(C)C)C(=O)N[C@@H](CC(C)C)C(=O)N1CCC[C@H]1C(=O)N1CCC[C@@H]1C(=O)N[C@H](C)C(=O)O)[C@@H](C)O
active: Activity [8] | Activity [9] | Activity [10] | Activity [11] | Activity [12] | Activity [13] | Activity [14] | Activity [15] | Activity [16] | Activity [17] | Activity [19] Dose-Dependent Effect | Activity [20] Dose-Dependent Effect | Activity [22] Dose-Dependent Effect | Activity [24] | Activity [25] | Activity [26] | Activity [27] | Activity [28] Dose-Dependent Effect | inhibition [29] | Activity [31]
inactive: Activity [1] | Activity [2] | Activity [3] | Activity [4] | Activity [5] | Activity [6] | Activity [7] | Activity [18] | Activity [21] | Activity [23] | Activity [30] | Activity [32]
